Experiment [1] deals with rabbit skeletal ryanodine receptor (RyR1) (rabbit) (UniProt P11716).
The target of experiment [2] is T1, rabbit skeletal RyR1 (native RyR1 in HSR) (Oryctolagus cuniculus, UniProt P11716).
T1 construct: tested using native RyR1 in rabbit skeletal HSR; from tissue; host or cells: rabbit fast-twitch back and leg muscles (heavy SR vesicles)
Put plainly: Planar lipid bilayer single-channel recording, native RyR1 in HSR. The format is biochemical. Particulars: for EC50: native RyR1 in SR, toxin cis, 6-100 nM, -30 mV, [Ca^2+]free 10 μM, pH 7.2, Hill fit, means ± SE of 3–9 experiments, read-out: EC50 for Psubstate.

The next experiment concerns the target T2, purified rabbit RyR1 (Oryctolagus cuniculus, UniProt P11716).
T2 construct: we added IpTxa to purified RyR1 incorporated into planar lipid bilayers; from tissue; host or cells: rabbit skeletal muscle (inferred; purified from HSR)
Put plainly: Planar lipid bilayer single-channel recording, purified RyR1. Format: biochemical. Particulars: for EC50: purified RyR1, toxin cis, 6-100 nM, -30 mV, 10 μM Ca^2+, Hill fit, means ± SE of 4–10 experiments, read-out: EC50 for Psubstate. The method, then:
Single-channel recordings of rabbit skeletal RyR1 incorporated into planar lipid bilayers were carried out as described previously. Lipid bilayers, consisting of brain tissue phosphatidylethanolamine and phosphatidylserine (1 : 1) in decane (20 mg/mL) were formed across a hole of approximately 200 μm diameter. Thinning of the bilayer was monitored by bilayer capacitance. The basic composition of the cis/trans solution consisted of 300 mM cesium methanesulfonate, 10 mM Tris/Hepes (pH 7.2), 2 mM EGTA, and 1.998 mM CaCl2 ([Ca^2+]free = 10 μM). [Ca^2+]free was calculated using the “Chelator” program (Theo Schoenmaker). Cs^+ was selected as the charge carrier to ensure precise control of free [Ca^2+], to increase the channel conductance, and to avoid any contribution from potassium channels present in the SR membrane. Chloride channels were inhibited by using the impermeant anion methanesulfonate. Incorporation of ion channels was carried out as described by Miller and Racker and confirmed by recording the characteristically high single-channel conductance of RyRs. The trans side was maintained at ground and the cis side was clamped at −30 mV relative to the ground. After addition of the IpTxa to the cis chamber, the single channel data were collected at −30 mV for 2–5 min. […] Recordings were filtered with an 8-pole low-pass Bessel filter at 1 kHz and digitalized through a Digidata 1200 series interface (Axon Instruments). Data acquisition and analysis were done with the Axon Instruments software, pClamp v7.0.
Data were analyzed using the Hill equation described previously:
(1) Psubstate=(Psubstate, max )/[1+(EC50/[IpTxa])^nH] orPo=(Po, max )/[1+(EC50/[IpTxa])^nH], where (Po, max ) is the Po observed at saturating concentrations of IpTxa, EC50 is the IpTxa concentration for which 50% of Po, max is obtained and nH is the Hill coefficient. Also, Psubstate, max is the Psubstate observed at saturating concentrations of IpTxa, EC50 is the IpTxa concentration for which 50% of Psubstate, max is obtained, and nH is the Hill coefficient. The probability of full open state of the channel (Po) was defined as the ratio of the time spent in the open state to the total time exclusive of time spent in the substate. The probability to obtain substate (Psubstate) was calculated as the time spent in the substate divided by a given total recording time. The durations of the substate were obtained by manual positioning of the cursors and constructing all point histograms. Mean duration of substate was measured by total substate time divided by total substate frequencies.
Results are given as means ± SE. Significant differences were analyzed using Student's t-test. Differences were considered to be significant when P < 0.05. The fitting of the data to the graphs were carried out using the software, Origin v7.
To determine whether the activation of native RyR1 in SR by IpTxa was due to a direct activation of RyR1 or due to an indirect activation through other proteins associated to RyR1, we added IpTxa to purified RyR1 incorporated into planar lipid bilayers (Figure 3(a)). […] Purity of RyR1 at the final purification step was verified by Coomassie blue staining (Supplementary Figure 2).
Figure 3 Effects of IpTxa on purified rabbit RyR1 incorporated in planar lipid bilayers. (a) Single channel activity of purified RyR1 incorporated in planar lipid bilayers at 10 μM Ca^2+ with or without IpTxa (6–100 nM) was recorded. Single channel currents are shown as downward deflections from the closed level (indicated by c). The holding potential was −30 mV. (b) The plot of Po of purified RyR1 versus various concentrations of IpTxa is shown. (c) The plot of Psubstate of purified RyR1 versus various concentrations of IpTxa is shown. The results are shown as the means ± SE for 7 experiments. […]

Experiment [3] has as its system RyR1. Particulars: ref [16], [18]; cited from earlier work. An excerpt: Imperatoxin A (IpTxa) from the African scorpion Pandinus imperator is a high-affinity modulator of skeletal RyR (RyR1). […] The inconsistency between occurrence of substate and ryanodine binding to RyR1 affected by K8A or T ...
The test system of experiment [4] is RyR1. Particulars: cited from earlier work. An excerpt:
Imperatoxin A (IpTxa) from the African scorpion Pandinus imperator is a high-affinity modulator of skeletal RyR (RyR1). […] Stretches of these positively charged residues tend to adopt different secondary structures such as α-helical structure for Peptide A and β-sheet structure for IpTxa and MCa. However, their orientation on the surface of the peptides could be similar. […] Two toxins induced different degree of substate of RyR1 at +40 mV holding potential (28% and 48% of full conductance state for IpTxa and MCa, resp.). […] Thus, the di ...

This is an account of results in publication PMC3192407, “Both Basic and Acidic Amino Acid Residues of IpTxa Are Involved in Triggering Substate of RyR1” (Journal of Biomedicine and Biotechnology, 2011).

Bridge positions count the residues as written; N and C are the ends. Peptide text beside a SMILES is read from it.

T2 sequence (P11716 whole entry): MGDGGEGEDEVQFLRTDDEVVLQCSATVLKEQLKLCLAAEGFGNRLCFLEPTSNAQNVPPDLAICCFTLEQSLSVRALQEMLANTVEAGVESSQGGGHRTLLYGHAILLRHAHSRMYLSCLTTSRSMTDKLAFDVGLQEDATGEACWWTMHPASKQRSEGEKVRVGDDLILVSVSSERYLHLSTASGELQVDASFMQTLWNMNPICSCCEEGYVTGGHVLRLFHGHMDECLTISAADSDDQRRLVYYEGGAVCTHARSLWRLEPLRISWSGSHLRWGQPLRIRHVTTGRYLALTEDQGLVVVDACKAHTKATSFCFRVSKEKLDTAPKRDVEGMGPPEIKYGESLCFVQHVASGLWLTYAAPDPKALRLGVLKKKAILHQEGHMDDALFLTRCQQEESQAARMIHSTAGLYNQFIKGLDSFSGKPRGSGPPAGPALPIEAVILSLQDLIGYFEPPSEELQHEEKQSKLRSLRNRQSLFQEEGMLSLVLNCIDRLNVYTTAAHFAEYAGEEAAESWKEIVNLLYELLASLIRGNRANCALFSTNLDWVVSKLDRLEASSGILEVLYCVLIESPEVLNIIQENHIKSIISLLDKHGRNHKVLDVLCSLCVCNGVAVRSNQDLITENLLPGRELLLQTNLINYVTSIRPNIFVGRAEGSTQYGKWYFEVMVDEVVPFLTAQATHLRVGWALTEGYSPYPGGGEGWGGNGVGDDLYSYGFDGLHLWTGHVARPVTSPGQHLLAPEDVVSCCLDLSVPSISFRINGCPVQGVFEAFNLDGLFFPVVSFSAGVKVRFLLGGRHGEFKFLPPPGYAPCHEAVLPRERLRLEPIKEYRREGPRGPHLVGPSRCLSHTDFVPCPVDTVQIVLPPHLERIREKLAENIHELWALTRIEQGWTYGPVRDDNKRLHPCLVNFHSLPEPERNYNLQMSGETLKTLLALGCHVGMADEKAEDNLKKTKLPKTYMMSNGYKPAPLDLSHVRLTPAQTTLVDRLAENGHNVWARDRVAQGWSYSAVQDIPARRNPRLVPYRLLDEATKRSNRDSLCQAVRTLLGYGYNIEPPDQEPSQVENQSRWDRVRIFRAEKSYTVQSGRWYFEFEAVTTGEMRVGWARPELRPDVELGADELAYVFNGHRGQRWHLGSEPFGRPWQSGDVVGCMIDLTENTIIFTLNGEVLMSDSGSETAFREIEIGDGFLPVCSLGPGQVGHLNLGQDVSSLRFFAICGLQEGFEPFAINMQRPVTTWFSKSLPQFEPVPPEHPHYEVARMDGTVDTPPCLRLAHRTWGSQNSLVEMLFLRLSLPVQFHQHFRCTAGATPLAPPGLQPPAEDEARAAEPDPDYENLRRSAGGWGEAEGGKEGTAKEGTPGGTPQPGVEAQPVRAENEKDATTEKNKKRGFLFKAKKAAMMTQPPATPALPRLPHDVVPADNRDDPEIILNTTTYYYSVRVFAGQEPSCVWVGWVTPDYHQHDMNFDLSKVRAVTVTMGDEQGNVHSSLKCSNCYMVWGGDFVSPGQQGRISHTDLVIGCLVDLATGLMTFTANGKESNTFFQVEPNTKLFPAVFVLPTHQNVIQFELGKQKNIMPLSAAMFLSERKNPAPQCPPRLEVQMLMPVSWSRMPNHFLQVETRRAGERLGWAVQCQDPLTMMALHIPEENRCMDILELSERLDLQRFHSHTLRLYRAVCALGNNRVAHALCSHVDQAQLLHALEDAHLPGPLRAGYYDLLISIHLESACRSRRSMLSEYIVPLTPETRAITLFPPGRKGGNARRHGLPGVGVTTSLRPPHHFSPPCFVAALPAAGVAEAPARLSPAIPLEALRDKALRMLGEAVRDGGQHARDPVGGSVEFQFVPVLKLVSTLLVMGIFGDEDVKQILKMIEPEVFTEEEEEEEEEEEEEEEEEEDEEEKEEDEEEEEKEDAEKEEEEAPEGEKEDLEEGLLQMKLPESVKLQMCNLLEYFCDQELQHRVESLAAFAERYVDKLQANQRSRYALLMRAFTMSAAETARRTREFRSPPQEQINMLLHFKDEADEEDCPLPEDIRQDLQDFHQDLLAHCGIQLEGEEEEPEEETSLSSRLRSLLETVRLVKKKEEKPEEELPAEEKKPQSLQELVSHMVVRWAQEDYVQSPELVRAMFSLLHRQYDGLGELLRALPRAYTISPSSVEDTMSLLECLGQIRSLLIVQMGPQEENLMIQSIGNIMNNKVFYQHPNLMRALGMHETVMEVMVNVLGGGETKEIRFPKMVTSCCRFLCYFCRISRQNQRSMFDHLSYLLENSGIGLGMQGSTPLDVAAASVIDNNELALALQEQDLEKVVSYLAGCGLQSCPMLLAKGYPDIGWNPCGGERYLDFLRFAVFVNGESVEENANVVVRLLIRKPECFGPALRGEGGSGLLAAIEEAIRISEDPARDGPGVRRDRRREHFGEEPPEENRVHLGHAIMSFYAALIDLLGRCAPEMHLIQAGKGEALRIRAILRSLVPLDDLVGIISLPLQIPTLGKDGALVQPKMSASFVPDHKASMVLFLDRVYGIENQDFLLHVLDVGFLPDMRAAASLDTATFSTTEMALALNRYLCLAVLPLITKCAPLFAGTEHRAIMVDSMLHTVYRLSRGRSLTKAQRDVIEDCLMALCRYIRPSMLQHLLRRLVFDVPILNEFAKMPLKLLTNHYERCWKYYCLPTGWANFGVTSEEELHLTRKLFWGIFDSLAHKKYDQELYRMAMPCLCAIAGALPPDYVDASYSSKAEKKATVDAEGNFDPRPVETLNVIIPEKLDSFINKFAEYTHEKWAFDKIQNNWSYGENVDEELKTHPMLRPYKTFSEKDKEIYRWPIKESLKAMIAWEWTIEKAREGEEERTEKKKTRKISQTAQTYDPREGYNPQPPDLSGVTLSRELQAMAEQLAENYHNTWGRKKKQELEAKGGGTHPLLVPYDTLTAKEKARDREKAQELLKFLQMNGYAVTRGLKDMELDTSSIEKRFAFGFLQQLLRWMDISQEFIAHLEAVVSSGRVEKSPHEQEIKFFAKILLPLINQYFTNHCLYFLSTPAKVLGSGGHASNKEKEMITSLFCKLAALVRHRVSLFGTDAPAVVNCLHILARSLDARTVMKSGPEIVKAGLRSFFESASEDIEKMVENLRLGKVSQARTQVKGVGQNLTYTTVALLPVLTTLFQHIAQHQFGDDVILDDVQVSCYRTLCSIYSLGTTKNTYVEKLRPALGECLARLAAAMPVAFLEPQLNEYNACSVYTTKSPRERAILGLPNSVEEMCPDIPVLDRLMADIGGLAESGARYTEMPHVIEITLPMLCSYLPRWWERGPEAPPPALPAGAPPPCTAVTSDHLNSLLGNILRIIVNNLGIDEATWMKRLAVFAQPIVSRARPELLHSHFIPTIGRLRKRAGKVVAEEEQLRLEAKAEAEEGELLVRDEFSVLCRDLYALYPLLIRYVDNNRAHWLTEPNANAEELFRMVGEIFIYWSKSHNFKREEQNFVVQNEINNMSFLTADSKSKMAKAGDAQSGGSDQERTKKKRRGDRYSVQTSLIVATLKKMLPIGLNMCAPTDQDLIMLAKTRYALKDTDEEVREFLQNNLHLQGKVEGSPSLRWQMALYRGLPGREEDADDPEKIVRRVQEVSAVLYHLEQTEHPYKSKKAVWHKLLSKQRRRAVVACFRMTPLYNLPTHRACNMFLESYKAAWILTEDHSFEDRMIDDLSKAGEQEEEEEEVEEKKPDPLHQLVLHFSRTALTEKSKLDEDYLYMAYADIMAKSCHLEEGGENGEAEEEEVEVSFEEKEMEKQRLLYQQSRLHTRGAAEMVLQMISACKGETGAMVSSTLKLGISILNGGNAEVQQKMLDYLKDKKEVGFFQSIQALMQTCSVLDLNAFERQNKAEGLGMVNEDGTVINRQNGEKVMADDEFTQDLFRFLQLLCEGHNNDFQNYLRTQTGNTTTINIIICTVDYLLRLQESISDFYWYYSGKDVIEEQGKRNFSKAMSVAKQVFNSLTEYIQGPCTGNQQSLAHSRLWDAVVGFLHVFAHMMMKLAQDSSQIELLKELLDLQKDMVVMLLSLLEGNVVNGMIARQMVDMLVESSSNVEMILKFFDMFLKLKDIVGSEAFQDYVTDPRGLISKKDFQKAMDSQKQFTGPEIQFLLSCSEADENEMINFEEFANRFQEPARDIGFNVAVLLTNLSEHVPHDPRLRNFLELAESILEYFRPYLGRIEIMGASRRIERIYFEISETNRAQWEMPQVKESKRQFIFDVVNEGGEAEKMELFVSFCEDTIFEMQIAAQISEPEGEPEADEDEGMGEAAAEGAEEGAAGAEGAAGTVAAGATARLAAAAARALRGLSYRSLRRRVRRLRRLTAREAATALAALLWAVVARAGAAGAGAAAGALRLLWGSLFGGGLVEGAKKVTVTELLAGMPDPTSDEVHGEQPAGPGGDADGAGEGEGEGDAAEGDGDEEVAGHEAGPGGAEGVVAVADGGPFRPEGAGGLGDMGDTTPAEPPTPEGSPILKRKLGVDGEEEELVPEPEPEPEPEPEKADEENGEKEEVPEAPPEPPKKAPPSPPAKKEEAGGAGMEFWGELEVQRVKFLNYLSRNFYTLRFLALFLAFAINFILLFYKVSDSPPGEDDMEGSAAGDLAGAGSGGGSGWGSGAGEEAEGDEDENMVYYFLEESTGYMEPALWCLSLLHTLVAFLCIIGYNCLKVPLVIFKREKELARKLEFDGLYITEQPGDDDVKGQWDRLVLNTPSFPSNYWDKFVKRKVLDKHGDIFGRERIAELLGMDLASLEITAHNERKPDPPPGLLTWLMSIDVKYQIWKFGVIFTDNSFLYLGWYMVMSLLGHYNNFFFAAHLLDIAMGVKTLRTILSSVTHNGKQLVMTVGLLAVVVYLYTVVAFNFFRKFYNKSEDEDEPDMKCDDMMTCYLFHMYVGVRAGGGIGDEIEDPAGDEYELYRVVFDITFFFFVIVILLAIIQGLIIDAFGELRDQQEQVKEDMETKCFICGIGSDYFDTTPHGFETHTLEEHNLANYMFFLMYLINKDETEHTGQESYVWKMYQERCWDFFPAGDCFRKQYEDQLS
T1 sequence (P11716 whole entry): as above

With “Imperatoxin A (IpTxa), synthetic wild type (from UniProt P59868 1-33) (peptide)”, the mean duration of substate of native RyR1 in HSR at 30 nM toxin in experiment [1] stood at 4.56 s.
In experiment [1], “IpTxa D2A (from UniProt P59868 1-33) (peptide)” yielded a mean duration of substate of native RyR1 in HSR at 30 nM toxin of 2.96 s.
“IpTxa R9A (from UniProt P59868 1-33) (peptide)” gave a mean duration of substate of native RyR1 in HSR at 30 nM toxin in experiment [1] of 5.86 s.
Take `CC(C)C[C@@H]1NC(=O)[C@H](Cc2c[nH]cn2)NC(=O)[C@@H]2CCCN2C(=O)[C@H](CC(C)C)NC(=O)[C@@H](NC(=O)[C@H](CC(=O)O)NC(=O)CN)CSSC[C@@H]2NC(=O)[C@@H]3CSSC[C@@H](C(=O)N[C@@H](CCCNC(=N)N)C(=O)O)NC(=O)[C@H](CCCNC(=N)N)NC(=O)[C@H](CCCCN)NC(=O)[C@H](CCC(=O)O)NC(=O)[C@H](C)NC(=O)[C@H](CC(N)=O)NC(=O)[C@H]([C@@H](C)O)NC(=O)CNC(=O)[C@H](CCCNC(=N)N)NC(=O)[C@H](CCCNC(=N)N)NC(=O)[C@H](CCCCN)NC(=O)[C@H](CSSC[C@H](NC(=O)[C@H](CCCNC(=N)N)NC(=O)[C@H](C)NC1=O)C(=O)N[C@@H](CCCCN)C(=O)N[C@@H](C)C(=O)N[C@@H](CC(=O)O)C(=O)N[C@@H](CC(N)=O)C(=O)N[C@@H](CC(=O)O)C(=O)N3)NC(=O)[C@H](CCCCN)NC(=O)[C@H](CCCCN)NC(=O)CNC2=O` [K8A] (H-GDCLPHLARCKADNDCCGKKCKRRGTNAEKRCR-OH; disulfide 3-17, 10-21, 16-32): the “EC50 of Psubstate compared with wild type (in words)” value in experiment [2] (native RyR1 (Figure 2(b)), Figure 5(b), purified RyR1, also cited in sentence) is “dramatically decreased EC50 of Psubstate”. In addition, the values for the EC50 (in experiment [2]; at purified rabbit RyR1) were 5.7 ± 2.86 nM and 5.29 ± 4.84 nM, respectively.
In the case of maurocalcine [MCa], in the experiment with RyR1 [3], the “[^3H]ryanodine binding (in words)” value is “strongly enhances [^3H]ryanodine binding to RyR1”. Also, the “substate current amplitude, % of full conductance state” value in the experiment on RyR1 [4] (+40 mV holding potential, ref [10], [13]) was 48%. Further, the “substate current amplitude, % of full conductance” value with RyR1 [4] (long-lasting substate of RyR1, ref [16], [18]) was 48%. In the experiment with RyR1 [4] (ref [16]), the “modification of channel gating by MCa and peptide A together (in words)” value is given as “in an additive, but not competitive, manner”.
Consider `CC(C)C[C@@H]1NC(=O)[C@H](Cc2c[nH]cn2)NC(=O)[C@@H]2CCCN2C(=O)[C@H](CC(C)C)NC(=O)[C@@H](NC(=O)[C@H](CC(=O)O)NC(=O)CN)CSSC[C@@H]2NC(=O)[C@@H]3CSSC[C@@H](C(=O)N[C@@H](CCCNC(=N)N)C(=O)O)NC(=O)[C@H](C)NC(=O)[C@H](CCCCN)NC(=O)[C@H](CCC(=O)O)NC(=O)[C@H](C)NC(=O)[C@H](CC(N)=O)NC(=O)[C@H]([C@@H](C)O)NC(=O)CNC(=O)[C@H](CCCNC(=N)N)NC(=O)[C@H](CCCNC(=N)N)NC(=O)[C@H](CCCCN)NC(=O)[C@H](CSSC[C@H](NC(=O)[C@H](CCCNC(=N)N)NC(=O)[C@H](CCCCN)NC1=O)C(=O)N[C@@H](CCCCN)C(=O)N[C@@H](C)C(=O)N[C@@H](CC(=O)O)C(=O)N[C@@H](CC(N)=O)C(=O)N[C@@H](CC(=O)O)C(=O)N3)NC(=O)[C@H](CCCCN)NC(=O)[C@H](CCCCN)NC(=O)CNC2=O` [R31A] (H-GDCLPHLKRCKADNDCCGKKCKRRGTNAEKACR-OH; disulfide 3-17, 10-21, 16-32), for which the EC50 in experiment [2] turned out to be 19.2 ± 4.65 nM; on purified rabbit RyR1 it was 18.2 ± 1.65 nM. The “EC50 for Psubstate compared with wild type (in words)” value on purified rabbit RyR1 (purified RyR1, 6-100 nM) is recorded as “without a significant change of EC50”.
